Data taken from US20110178104A1, “Anti-Heparin Compounds” (POLYMEDIX INC., priority 2010, published 2011).
Values after ≈ are worked out from the molar mass of the structure shown. Values joined by “and” are separate entries in the source; they are usually repeats but may differ in a detail not shown here. Identical values can stand only once. Like-named read-outs stand apart in the source and are kept apart here. Starred links: 1 amine or outer side, 2 acyl side, 3 side chain; linkers in the order of their positions; H or OH if unused. Non-standard residues stand in square brackets, D forms with d. Residues, ends and D or L forms follow the SMILES beside them. *: point of attachment. NH(3-CONH2-4-OMe-phenyl) = COc1ccc(N*)cc1C(N)=O; 3Abz(6-OMe) = COc1ccc(N[*:1])cc1C(=O)[*:2]; X1 = O=C(O)COc1ccc(N[*:1])cc1C(=O)[*:2]

Legend:
[1] = Cytotoxicity colorimetric assay, HepG2; type: cell-based, human; conditions: human, HepG2 cells, one hour in serum-free media
Experimental: (§1) This assay measures the bioreduction of a novel tetrazolium compound to a soluble formazan product by viable cells. HepG2 cells were seeded in 96 well plates at 3×10^4 cells/well in MEM medium with 10% fetal bovine serum (FBS) 24 hours prior to use. NIH/3T3 cells were seeded in 96 well plates at 2×10^4 cells/well in DMEM medium with 10% bovine calf serum (BCS) 24 hours prior to use. Cell monolayers were rinsed in serum-free media and incubated for one hour with test agent in serum-free media. After incubation, the media was replaced with serum supplemented media and live cells were measured using the Cell Titer 96 Aqueous […] Assay kit (Promega, Madison, Wis.). EC50 values were determined using a four parameter logistic equation: Y=Bottom+(Top-Bottom)/(1+10̂((LogEC50-X)*HillSlope)).

[2] = Cytotoxicity colorimetric assay, NIH/3T3; type: cell-based, mouse; conditions: mouse, NIH/3T3 cells, one hour in serum-free media
Experimental: as §1

Unfractionated heparin = experiment: aPTT clotting assay, UFH 0.4 U/mL in plasma (Example 10); type: biochemical; conditions: unfractionated heparin 0.4 U/mL in plasma; aPTT clotting
Experimental: aPTT clotting Assay: Unfractionated heparin was mixed with plasma at a final concentration of 0.4 U/mL (or concentration which increases aPTT time to between 120 and 300 seconds). […] The ACL Elite Hemostasis analyzer (Beckman Coulter™) was used to add aPTT reagent (HemosIL SynthASil) to supplemented plasma. Clotting was initiated by addition of CaCl2 and time to clot was recorded.

enoxaparin = experiment: FXa amidolytic assay (Example 10), enoxaparin; conditions: read-out: Enox FXa EC50; enoxaparin 0.1 ug/ml; human antithrombin, bovine Factor Xa
tinzaparin = experiment: FXa amidolytic assay (Example 10), tinzaparin; conditions: read-out: Tinzap FXa EC50; tinzaparin 0.1 ug/ml; human antithrombin, bovine Factor Xa
fondaparinux = experiment: FXa amidolytic assay (Example 10), fondaparinux; conditions: for EC50: read-out: Fondap FXa EC50, fondaparinux 0.02 μg/mL, human antithrombin, bovine Factor Xa
[3] = test system: isolated human erythrocytes; experiment: cells; type: cell-based; conditions: Homo sapiens, Erythrocyte, 1 h, read-out: Hemolysis EC50
Experimental: Hemolysis assay: Cytotoxicity was also evaluated in a hemolysis assay using isolated human erythrocytes. Pooled whole human blood was centrifuged to separate the red blood cells (RBC). The isolated RBCs were rinsed and diluted in Tris-buffered saline (TBS buffer, pH 7.4) to obtain a 0.22% RBC stock suspension. Serial two-fold dilutions of test agent were assayed over a concentration range of 1000 to 0.48 μg/ml with shaking for 1 hour at 37° C. At the conclusion of the incubation time, samples were centrifuged and 30 μl of the supernatant was added to 100 μl H2O. OD405 measurements were read for hemoglobin concentration. The bee venom peptide melittin was used as a positive control. EC50 values were determined using a four parameter logistic equation: Y=Bottom+(Top-Bottom)/(1+10̂((LogEC50-X)*HillSlope)).

UFH = experiment: FXa amidolytic assay (Example 10), UFH; conditions: read-out: Heparin FXa uM EC50; UFH 0.03 units/mL; human antithrombin, bovine Factor Xa

Compound	EC50 (Unfractionated heparin) [nM]	EC50 (enoxaparin)	EC50 (tinzaparin)	EC50 (fondaparinux) [nM]	EC50 (UFH) [µM]	EC50 at 1 h [1] [µg/mL]	EC50 at 1 h [2] [µg/mL]	EC50 ([3]; human RBC, 1 hour at 37° C.) [µg/mL]	EC50 [3] [µg/mL]	Potent LMWH-antagonists with superior anti-fondaparinux activity (summary) (fondaparinux)
COc1cc(OC)c(C(=O)N[C@H]2CC[C@H](NC(=O)c3cc(C(=O)N[C@H]4CC[C@H](NC(=O)c5cc(C(=O)NCCN)c(OC)cc5OC)CC4)c(OC)cc3OC)CC2)cc1C(=O)NCCN [Compound 346]	8810	198 nM	410 nM	146	0.772	> 1000	> 1000	> 1000	–	–
COc1cc(OC)c(C(=O)NC2CCC(NC(=O)c3cc(C(=O)NCCN)c(OC)cc3OC)CC2)cc1C(=O)O (centres unmarked) [Compound 347]	> 10000	> 5000 nM	> 5000 nM	> 10000	> 20	> 1000	> 1000	–	–	–
COc1ccc(NC(=O)[C@H](CCCCN)NC(=O)c2cc(NC(=O)[C@H](CCCCN)NC(=O)c3cc(NC(=O)[C@H](CCCCN)NC(=O)c4cc(NC(=O)[C@H](CCCCN)NC(=O)c5ccccc5)ccc4OC)ccc3OC)ccc2OC)cc1C(N)=O [Compound 353]	1630	123 nM	104 nM	407	0.198	> 1000	~100 (≈ 81.3 µM)	–	> 1000	–
COc1cc(OC)c(C(=O)N[C@H]2CC[C@H](NC(=O)c3cc(C(=O)N[C@H]4CC[C@H](NC(=O)c5cc(C(=O)NCCN)c(OC)cc5OC)CC4)c(OCC(N)=O)cc3OC)CC2)cc1C(=O)NCCN [Compound 390]	2080	707 nM	708 nM	1280	–	892 (≈ 927 µM)	986 (≈ 1020 µM)	> 1000	–	–
COc1cc(OC)c(C(=O)N[C@H]2CC[C@H](NC(=O)c3cccc(C(=O)N[C@H]4CC[C@H](NC(=O)c5cc(C(=O)NCCN)c(OC)cc5OC)CC4)n3)CC2)cc1C(=O)NCCN [Compound 397]	1150	985 nM	955 nM	2630	–	616 (≈ 717 µM)	408 (≈ 475 µM)	> 1000	–	–
COc1cc(OC)c(C(=O)N[C@H]2CC[C@H](NC(=O)c3cccc(C(=O)N[C@H]4CC[C@H](NC(=O)c5cc(C(=O)NCCN)c(OC)cc5OC)CC4)c3)CC2)cc1C(=O)NCCN [Compound 398]	4770	2530 nM	2040 nM	13900	–	1090 (≈ 1270 µM)	> 1000	> 1000	–	–
COc1cc(OC)c(C(=O)N[C@H]2CC[C@H](NC(=O)c3cncc(C(=O)N[C@H]4CC[C@H](NC(=O)c5cc(C(=O)NCCN)c(OC)cc5OC)CC4)c3)CC2)cc1C(=O)NCCN [Compound 400]	5090	1220 nM	1180 nM	5510	–	1300 (≈ 1520 µM)	> 1000	> 1000	–	–
COc1cc(OC)c(C(=O)N[C@H]2CC[C@H](NC(=O)c3cc(C(=O)N[C@H]4CC[C@H](NC(=O)c5cc(C(=O)NCCN)c(OC)cc5OC)CC4)ncn3)CC2)cc1C(=O)NCCN [Compound 402]	5520	5810 nM	3180 nM	5860	–	864 (≈ 1000 µM)	753 (≈ 875 µM)	> 1000	–	–
COc1cc(OC)c(C(=O)N[C@H]2CC[C@@H](NC(=O)c3cc(C(=O)N[C@H]4CC[C@@H](NC(=O)c5cc(C(=O)NCCCN)c(OC)cc5OC)CC4)c(OC)cc3OC)CC2)cc1C(=O)NCCCN [Compound 404]	2570	350 nM	445 nM	325	–	> 1000	1100 (≈ 1160 µM)	–	–	–
COc1cc(OC)c(C(=O)N[C@H]2CC[C@H](NC(=O)c3cc(C(=O)N[C@H]4CC[C@H](NC(=O)c5cc(C(=O)NCCCN)c(OC)cc5OC)CC4)c(OC)cc3OC)CC2)cc1C(=O)NCCCN [Compound 406]	2460	299 nM	436 nM	113	–	209 (≈ 220 µM)	215 (≈ 227 µM)	12.1 (≈ 12.8 µM)	–	–
COc1cc(OC)c(C(=O)Nc2ccc(NC(=O)c3cc(C(=O)NCCN(C)C)c(OCCCCCN)cc3OCCCCCN)cc2)cc1C(=O)Nc1ccc(NC(=O)c2cc(C(=O)NCCN(C)C)c(OCCCCCN)cc2OCCCCCN)cc1 [Compound 410]	640	56 nM	68 nM	41	–	250 (≈ 200 µM)	97.5 (≈ 78.1 µM)	–	> 1000	–

The next lines start with results.

EC50 (Unfractionated heparin) [nM]	EC50 (enoxaparin)	EC50 (tinzaparin)	EC50 (fondaparinux) [nM]	EC50 (UFH) [µM]	Compound	EC50 at 1 h [1] [µg/mL]	EC50 at 1 h [2] [µg/mL]	EC50 ([3]; human RBC, 1 hour at 37° C.) [µg/mL]	EC50 [3] [µg/mL]	Potent LMWH-antagonists with superior anti-fondaparinux activity (summary) (fondaparinux)
2730	3280 nM	1290 nM	> 10000	–	COc1ccc(NC(=O)[C@H](CCCCN)NC(=O)c2cc(NC(=O)[C@H](CCCCN)NC(=O)c3cc(NC(=O)[C@H](CCCCN)NC(=O)c4cc(NC(=O)[C@@H](N)CCCCN)ccc4OC)ccc3OC)ccc2OC)cc1C(=O)O [Compound 250]	> 1000	> 1000	–	–	–
> 10000	198 nM and 338 nM	199 nM and 367 nM	–	0.236	COc1ccc(NC(=O)[C@@H](CCCNC(=N)N)NC(=O)c2cc(NC(=O)[C@@H](CCCNC(=N)N)NC(=O)c3cc(NC(=O)[C@@H](CCCNC(=N)N)NC(=O)c4cc(NC(C)=O)ccc4OC)ccc3OC)ccc2OCC(=O)O)cc1C(=O)N[C@H](Cc1c[nH]c2ccccc12)C(=O)O [Compound 306]	~1000 (≈ 738 µM)	–	~1000 (≈ 738 µM)	–	–
2020	108 nM	90 nM	129	0.213	COc1ccc(NC(=O)[C@H](CCCCN)NC(=O)c2cc(NC(=O)[C@H](CCCCN)NC(=O)c3cc(NC(=O)[C@H](CCCCN)NC(=O)c4cc(NC(=O)[C@H](CCCCN)NC(=O)c5c[nH]c6ccccc56)ccc4OC)ccc3OC)ccc2OC)cc1C(N)=O [Compound 349]	236 (≈ 186 µM)	108 (≈ 85.1 µM)	> 1000	–	–
627	147 nM	128 nM	146	0.291	COc1ccc(NC(=O)[C@H](CCCCN)NC(=O)c2cc(NC(=O)[C@H](CCCCN)NC(=O)c3cc(NC(=O)[C@H](CCCCN)NC(=O)c4cc(NC(=O)[C@H](CCCCN)NC(=O)c5c[nH]c6ccccc56)ccc4OC)ccc3OC)ccc2OCC(=O)O)cc1C(N)=O [Compound 350]	425 (≈ 324 µM)	150 (≈ 114 µM)	> 1000	–	–
2270	299 nM	162 nM	934	0.287	COc1ccc(NC(=O)[C@H](CCCCN)NC(=O)c2cc(NC(=O)[C@H](CCCCN)NC(=O)c3cc(NC(=O)[C@H](CCCCN)NC(=O)c4cc(NC(=O)[C@H](CCCCN)NC(=O)[C@@H](N)Cc5c[nH]c6ccccc56)ccc4OC)ccc3OC)ccc2OCC(=O)O)cc1C(N)=O [Compound 352] (H-WK[3Abz(6-OMe)]K[3Abz(6-OMe)]K[X1]K-{NH(3-CONH2-4-OMe-phenyl)})	758 (≈ 559 µM)	> 1000	> 1000	–	–
1150	96 nM	123 nM	61	–	COc1cc(OC)c(C(=O)Nc2ccc(NC(=O)c3ccc(OCCCCCN)cc3OCCCCCN)cc2)cc1C(=O)Nc1ccc(NC(=O)c2ccc(OCCCCCN)cc2OCCCCCN)cc1 [Compound 411]	590 (≈ 579 µM)	86 (≈ 84.4 µM)	> 1000	–	superior anti-fondaparinux activity
